Measurements: patent US12023341B2, “Platinum-acridine compounds and methods of treating cancers” (Wake Forest University, priority 2020, dated 2024)

Legend:
HCT-116 cells = experiment: Uptake of compound 1 after epigenetic drugs, confocal fluorescence microscopy; type: cell-based, human; details: HCT-116, pre-screen of epigenetic drugs, alone or in combination
Experimental: We first pre-screened several epigenetic drugs in cultured HCT-116 cells in a multi-well plate format for their ability to increase the uptake of compound 1 using confocal fluorescence microscopy. […] These compounds were then tested again at escalating doses (2.5-20 mM).
Confocal fluorescence microscopy. Cells were seeded and allowed to attach overnight before any treatment. After cells were treated depend on purposes of different experiments, media was removed and dishes were rinsed 3 times with 1 mL of pre-warmed PBS buffer. Cells were then used fixed with 4% formaldehyde in PBS buffer for 15 minutes. Dishes were then washed an additional 3 times with 1 mL of pre-warmed PBS before imaging. Images were collected using a LSM 880 Confocal Microscope (Carl Zeiss Microscopy) using a 63X/1.4NA Plan-Apochromatic objective. The fluorescence of acridine was excited with a 405 nm (15 mW) laser at 4.4% and collected between 405-481 nm. To allow comparative fluorescence intensity analysis, excitation power, pinhole settings, PMT gain, and offset values across and within imaging sessions for each respective channel were not changed. The intensity of acridine-related fluorescence in treated cells was estimated by drawing a region of interest around each cell. A total of more than 100 individual cells across 3 views of 2 independent experiments were analyzed in this fashion. […]

hMATE1 = biological target: T1, hMATE1 (Homo sapiens, UniProt Q96FL8); details: reported values; cited from earlier work
T1 sequence (Q96FL8 1-570): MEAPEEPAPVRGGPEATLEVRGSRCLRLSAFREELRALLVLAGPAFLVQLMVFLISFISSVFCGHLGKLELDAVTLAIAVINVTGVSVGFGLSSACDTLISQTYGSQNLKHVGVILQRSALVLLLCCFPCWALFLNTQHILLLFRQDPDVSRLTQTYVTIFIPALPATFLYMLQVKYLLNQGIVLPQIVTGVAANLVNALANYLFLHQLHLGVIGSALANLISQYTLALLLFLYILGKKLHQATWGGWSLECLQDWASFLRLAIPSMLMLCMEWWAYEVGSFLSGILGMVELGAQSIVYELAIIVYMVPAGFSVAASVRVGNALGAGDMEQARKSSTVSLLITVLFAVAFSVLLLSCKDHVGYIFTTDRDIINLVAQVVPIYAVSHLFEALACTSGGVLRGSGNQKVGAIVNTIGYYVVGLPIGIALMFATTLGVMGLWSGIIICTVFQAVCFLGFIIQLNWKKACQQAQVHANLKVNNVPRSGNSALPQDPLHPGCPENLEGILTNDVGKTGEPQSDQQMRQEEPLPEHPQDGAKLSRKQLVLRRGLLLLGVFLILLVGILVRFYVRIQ

With `CS(=O)(=O)c1ccc(-c2cnc(NCc3ccco3)n3cnnc23)cc1` [EED226] the “uptake of compound 1 (acridine-associated blue fluorescence)” value (HCT-116 cells) was “enhanced uptake of compound 1”.

For `CCN(c1cc(-c2ccc(CN3CCOCC3)cc2)cc(C(=O)NCc2c(C)cc(C)[nH]c2=O)c1C)C1CCOCC1` [EPZ-6438], the “uptake of compound 1 (acridine-associated blue fluorescence)” value (HCT-116 cells) was “enhanced uptake of compound 1”.

For `CCc1nc(N)nc(N)c1-c1ccc(Cl)cc1` [pyrimethamine], the Ki (hMATE1) is listed as 77 to 93 nM.
